The values below come from the supplement of paper PMC10290057.

For experiment [1], the system named is HCT116. The experiment is described as follows: AC50 cell viability (CellTiter-Glo); higher = less potent. The following applies: 48 h.
Experiment [2] has as its system HCT116. The experiment is described as follows: efficacy (fitted maximal change in viability relative to DMSO control); higher = less cytotoxic (negative = loss of viability). Conditions: 48 h.
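For AC50 cell viability (CellTiter-Glo) in this document: HCT116 colorectal carcinoma cells screened at five concentrations per compound, luminescent viability scaled between DMSO wells and empty wells on each plate, curves fitted per compound.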
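For efficacy (fitted maximal change in viability relative to DMSO control) in this document: Luminescence-based viability readout, five doses per compound, normalized against on-plate DMSO and empty-well controls, followed by dose-response curve fitting for every drug.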

Compound `c1ccc(CNc2nc(NCc3ccccc3)c3ccccc3n2)cc1` had an AC50 cell viability in experiment [1] of 8.33 µM. In addition, in experiment [2], the efficacy was -98.7%.

Compound `C/C1=C/C(=C(/CNC(=O)C2=CC(=CC3=C2C=N[N]3C4CCCC4)C5=CC=C(CN6CCOCC6)C=C5)C(=O)N1)C` came in with an AC50 cell viability in experiment [1] of 20.9 µM. The efficacy in experiment [2] is -108%.

On to `c1ccc(CNc2nc(N3CCOc4ccccc43)nc3c2CCCC3)cc1`, for which the AC50 cell viability in experiment [1] came out at 20.9 µM. For the same compound, in experiment [2], the efficacy was -42.4%.

Regarding `CC(C)(C)Cn1c(N)nc2ccc(-c3[nH]c(C(C)(C)C)nc3-c3ccc(F)cc3)nc21`, the AC50 cell viability in experiment [1] stood at 23.5 µM. Besides, the efficacy in experiment [2] was -83.7%.

For `Cc1[nH]c(/C=C2\C(=O)Nc3ccc(F)cc32)c(C)c1C(=O)NC[C@H](O)CN1CCOCC1`, the AC50 cell viability in experiment [1] was 2.63 µM. In addition, the efficacy in experiment [2] is -73%.

For `Cc1cc(-c2cnn3c(NC[C@H]4C[C@@](C)(O)C4)cc(Oc4cccnc4)nc23)ccc1C(=O)NC1CC1`, in experiment [1], the AC50 cell viability came out at 0.934 µM. Also, in experiment [2], the efficacy is -56.6%.

Turning to `Cc1ccc(C(C)(O)c2nc3ccccc3s2)c(C)c1` (stereo unspecified), the AC50 cell viability in experiment [1] was found to be 16.6 µM. Moreover, the efficacy in experiment [2] is -43.4%.

Turning to `Cc1ccc([S+](=O)([O-])Cc2nc(-c3ccc(C(=O)NCc4cccnc4)cc3)oc2C)cc1`, the AC50 cell viability in experiment [1] worked out at 0.0372 µM. Besides, the efficacy in experiment [2] was -90.9%.

On to `Cc1cnc(Nc2ccc(F)cc2Cl)nc1-c1c[nH]c(C(=O)N[C@H](CO)c2cccc(Cl)c2)c1`, for which the AC50 cell viability in experiment [1] is 4.17 µM. For the same compound, the efficacy in experiment [2] was -115%.

As for `Cc1cccc(-c2[nH]c(C(C)(C)C)nc2-c2ccc3c(c2)OCO3)n1`, in experiment [1], the AC50 cell viability amounted to 2.95 µM. Further, the efficacy in experiment [2] is -86.6%.

The compound `Cc1cccc(-c2[nH]c(C(C)(C)C)nc2-c2ccc3nccnc3c2)n1` gave an AC50 cell viability in experiment [1] of 20.9 µM. For the same compound, the efficacy in experiment [2] was -85.8%.

For the compound `CCc1cncnc1N1CCN(Cc2nc3cc(C(F)(F)F)ccc3[nH]2)CC1`, the AC50 cell viability in experiment [1] came out at 14.8 µM. The efficacy in experiment [2] was -42.6%.

On to `CCc1cnn2c(NCc3ccc[n+]([O-])c3)cc(N3CCCC[C@H]3CCO)nc12`, for which, in experiment [1], the AC50 cell viability turned out to be 0.0148 µM. Moreover, the efficacy in experiment [2] was -67.1%.

In turn, `CCN(CC)CCCC(C)Nc1nc(C)cc(Nc2ccc3nc(C)cc(N)c3c2)n1` (stereo unspecified) displayed an AC50 cell viability in experiment [1] of 20.9 µM. Besides, the efficacy in experiment [2] was -54.4%.

Turning to `CCN(CC)CCCCNc1ncc2cc(-c3cc(OC)cc(OC)c3)c(NC(=O)NC(C)(C)C)nc2n1`, in experiment [1], the AC50 cell viability amounted to 18.6 µM. For the same compound, the efficacy in experiment [2] is -117%.

Take `CCN1\C(=C(C(=O)NC)/C(=O)C2=C1N=C(C=C2)C#CC(C)(O)COC)N` (stereo unspecified): in experiment [1], the AC50 cell viability came out at 18.6 µM. Further, in experiment [2], the efficacy is -31.1%.

Turning to `CCNC(=O)C#Cc1ccc2c(c1)NC(=O)/C2=C(\Nc1ccc(CN(C)C)cc1)c1ccccc1`, the AC50 cell viability in experiment [1] was 0.257 µM. The efficacy in experiment [2] was -104%.

On to `CCNC(=O)Nc1ccc(Oc2ncnc(N)c2/C=N/OC)cc1Cl`, for which the AC50 cell viability in experiment [1] was 23.5 µM. Moreover, the efficacy in experiment [2] is -70.7%.

For `CCOC(=O)N1CCN(/[N+]([O-])=N/Oc2ccc([N+](=O)[O-])cc2[N+](=O)[O-])CC1`, the AC50 cell viability in experiment [1] was determined as 18.6 µM. Moreover, in experiment [2], the efficacy was -71.8%.

In experiment [1], `CCn1c(-c2nonc2N)nc2cncc(CNC3CCNCC3)c21` returned an AC50 cell viability of 10.5 µM. Further, the efficacy in experiment [2] was -43.9%.

Turning to `CCn1c(-c2nonc2N)nc2cnc(Oc3cccc(NC(=O)c4ccc(OCCN5CCOCC5)cc4)c3)cc21`, the AC50 cell viability in experiment [1] turned out to be 10.5 µM. Besides, in experiment [2], the efficacy was -79.2%.

In experiment [1], `CN(c1ncccc1CNc1nc(Nc2ccc3c(c2)CC(=O)N3)ncc1C(F)(F)F)[S+](C)(=O)[O-]` came in with an AC50 cell viability of 2.63 µM. Also, the efficacy in experiment [2] was -62.3%.

Compound `Cn1cc(-c2cnn3c(N)c(Br)c([C@@H]4CCCNC4)nc23)cn1` came in with an AC50 cell viability in experiment [1] of 13.2 µM. Further, the efficacy in experiment [2] was -108%.

As for `CN1CCC(CC1)COC2=CN=C(N=C2)C3=CC(=CC=C3)CN4/N=C(\C=C/C4=O)C5=CC(=CC=C5)C#N`, the AC50 cell viability in experiment [1] worked out at 7.42 µM. The efficacy in experiment [2] is -30.6%.

With `COc1ccc(-c2ccc3c(N4CCOCC4)nc(N4C[C@@H](C)O[C@@H](C)C4)nc3n2)cc1CO`, the AC50 cell viability in experiment [1] is 1.66 µM. Also, the efficacy in experiment [2] is -45.6%.

`COc1ncc(-c2ccc3nccc(-c4ccnnc4)c3c2)cc1N[S+](=O)([O-])c1ccc(F)cc1F`: in experiment [1], the AC50 cell viability came to 0.105 µM. Further, the efficacy in experiment [2] is -74.6%.

In the case of `COc1cccc2c(NCc3ccccc3)nc(-n3c(N)nc4ccccc43)nc12`, the AC50 cell viability in experiment [1] came out at 5.9 µM. The efficacy in experiment [2] was -93.4%.

Take `COc1cc(OC)c(/C=C/[S+](=O)([O-])Cc2ccc(OC)c(NCC(=O)[O-])c2)c(OC)c1`: the AC50 cell viability in experiment [1] was found to be 0.0661 µM. Moreover, the efficacy in experiment [2] was -58.9%.
